Results: patent US6417375B1, “Furylphosphines and organometallic complexes containing them” (Rhodia Fiber & Resin Intermediates, priority 1998, dated 2002)

Assay: Solubility of the furylphosphine in water

Structure (SMILES)	solubility (23 °C) [mg/mL]	other results
O=P([O-])([O-])c1ccc(P(c2ccccc2)c2ccccc2)o1.[Na+].[Na+] [Example 2, disodium 2-(diphenylphosphino)furan-5-phosphonate]		solubility (20 °C): 680 mg/mL
O=S([O-])c1ccc(P(c2ccccc2)c2ccccc2)o1.[Na+] [Example 4, sodium 2-(diphenylphosphino)furan-5-sulphinate]		solubility (21 °C): 205 mg/mL
O=P(O)(O)c1ccc(P(c2ccccc2)c2ccc(P(=O)(O)O)o2)o1 [Example 3, tetrasodium 2,2′-phenylphosphine-diylbis(furan-5-phosphonate)]	1140	
O=C([O-])c1ccc(P(c2ccccc2)c2ccccc2)o1.[Na+] [Example 1, sodium 2-(diphenylphosphino)furan-5-carboxylate]	250	
